We go through 11 compounds from US11028088B2, “Modulators of BTK proteolysis and methods of use” (Yale University, priority 2018, dated 2021).

One assay addresses T1, HER3 (Homo sapiens, UniProt P21860).
T1 construct: endogenous in cells; host or cells: OVCAR8
Put plainly: HER3/ERBB3 degradation (western blot, OVCAR8 cells). The class given is cell-based. As for the experimental part: FIG. 10 illustrates a Western blot of Compound 102-related degradation of ERBB3.
In various embodiments, treatment with PROTAC was performed in one of two ways: 1) For experiments involving >16 h exposure to compound, a 1000× stock was added to cells followed by gentle agitation; 2) For shorter treatments, a 2× stock was added to an equal volume of cells to ensure uniform drug exposure. For immortalized cell lines, 2×10^6 cells per treatment condition were collected and washed once with ice cold PBS (IX), followed by lysis in buffer containing 20 mM Tris [pH 8.0], 0.25% sodium deoxycholate, 1% Triton X-100, supplemented with protease (Roche) and phosphatase inhibitors (10 mM NaF, 2 mM Na3VO4, 10 mM β-glycerophosphate, 10 mM Na-pyrophosphate). Lysates were spun at 15,000×g for 10 min at 4° C. and supernatant was quantified for total protein content using the Pierce BCA Protein Assay (Thermo Fisher Scientific). 30 μg of protein was loaded onto 12% SDS-PAGE gels or 4-15% Mini-PROTEAN TGX precast gradient gels (Bio-Rad), transferred onto nitrocellulose membranes, and probed with the specified primary antibodies overnight with rocking at 4° C. in 1×TBS-T containing 5% non-fat milk.
(§1) Either anti-rabbit or anti-mouse HRP-conjugated secondary antibodies (Pierce) were incubated with the membranes for 1 h at room temperature at 1:10,000 dilutions in 5% non-fat milk in IX TBS-T. Imaging was performed using the ECL Prime chemiluminescent western blot detection reagents (Amersham) followed by visualization with the Bio-Rad ChemiDoc imaging instrument. All western blots were subsequently processed and quantified using the accompanying Bio-Rad Image Lab software. Primary antibodies used were: Anti-actin antibody (Cat. #MA 1-744) purchased from ThermoFisher Scientific; anti-BTK (Cat. #8547), anti-pBTK (Y223, Cat. #5082), anti-ITK (Cat. #2380), anti-GAPDH (Cat. #5179), anti-IKZF1 (Cat. #9034), and anti-IKZF3 (Cat. #15103) antibodies purchased from Cell Signaling Technology. All antibodies were used at 1:1,000 dilutions in 5% non-fat milk in 1×TBS-Tween (TBS-T) or Blotto blocker (Thermo Scientific) unless otherwise noted in supplier specifications.

For another assay, the target named is BTK (Homo sapiens, UniProt Q06187). Put plainly: BTK degradation in NAMALWA cells (immunoblot). The class given is cell-based. Details: host or cells: NAMALWA. The conditions noted are these: NAMALWA cells; for DC50: concentration needed to degrade 50% of the total pool of BTK; for Max: maximal BTK degradation. As for the experimental part:
NAMALWA and Jurkat cell lines were purchased from ATCC and cultured according to supplier guidelines at 37° C. […] Wild-type and C481S BTK XLA cell lines were cultured as previously described (39). Written, informed consent was obtained prior to the collection of cells from CLL patients using the IWCLL2008 criteria. Isolation of mononuclear cells from peripheral blood was prepared using density gradient centrifugation. B-cells were then negatively selected ([…] Technologies). […] They were maintained at 37° C. in 5% CO2.
Lysates were spun at 15,000×g for 10 min at 4° C. and supernatant was quantified for total protein content using the Pierce BCA Protein Assay (Thermo Fisher Scientific).
as §1, with “Primary antibodies used were: Anti-actin antibody (Cat. #MA 1-744) purchased from ThermoFisher Scientific; anti-BTK (Cat. #8547), anti-pBTK (Y223, Cat. #5082), anti-ITK (Cat. #2380), anti-GAPDH (Cat. #5179), anti-IKZF1 (Cat. #9034), and anti-IKZF3 (Cat. #15103) antibodies purchased from Cell Signaling Technology.” left out
In general terms: Immunoblotting shows a protein as a band on a membrane.

Read-outs that look alike come from different tables or passages of the source. Some results are limits rather than exact numbers.

T1 sequence (P21860 20-1342): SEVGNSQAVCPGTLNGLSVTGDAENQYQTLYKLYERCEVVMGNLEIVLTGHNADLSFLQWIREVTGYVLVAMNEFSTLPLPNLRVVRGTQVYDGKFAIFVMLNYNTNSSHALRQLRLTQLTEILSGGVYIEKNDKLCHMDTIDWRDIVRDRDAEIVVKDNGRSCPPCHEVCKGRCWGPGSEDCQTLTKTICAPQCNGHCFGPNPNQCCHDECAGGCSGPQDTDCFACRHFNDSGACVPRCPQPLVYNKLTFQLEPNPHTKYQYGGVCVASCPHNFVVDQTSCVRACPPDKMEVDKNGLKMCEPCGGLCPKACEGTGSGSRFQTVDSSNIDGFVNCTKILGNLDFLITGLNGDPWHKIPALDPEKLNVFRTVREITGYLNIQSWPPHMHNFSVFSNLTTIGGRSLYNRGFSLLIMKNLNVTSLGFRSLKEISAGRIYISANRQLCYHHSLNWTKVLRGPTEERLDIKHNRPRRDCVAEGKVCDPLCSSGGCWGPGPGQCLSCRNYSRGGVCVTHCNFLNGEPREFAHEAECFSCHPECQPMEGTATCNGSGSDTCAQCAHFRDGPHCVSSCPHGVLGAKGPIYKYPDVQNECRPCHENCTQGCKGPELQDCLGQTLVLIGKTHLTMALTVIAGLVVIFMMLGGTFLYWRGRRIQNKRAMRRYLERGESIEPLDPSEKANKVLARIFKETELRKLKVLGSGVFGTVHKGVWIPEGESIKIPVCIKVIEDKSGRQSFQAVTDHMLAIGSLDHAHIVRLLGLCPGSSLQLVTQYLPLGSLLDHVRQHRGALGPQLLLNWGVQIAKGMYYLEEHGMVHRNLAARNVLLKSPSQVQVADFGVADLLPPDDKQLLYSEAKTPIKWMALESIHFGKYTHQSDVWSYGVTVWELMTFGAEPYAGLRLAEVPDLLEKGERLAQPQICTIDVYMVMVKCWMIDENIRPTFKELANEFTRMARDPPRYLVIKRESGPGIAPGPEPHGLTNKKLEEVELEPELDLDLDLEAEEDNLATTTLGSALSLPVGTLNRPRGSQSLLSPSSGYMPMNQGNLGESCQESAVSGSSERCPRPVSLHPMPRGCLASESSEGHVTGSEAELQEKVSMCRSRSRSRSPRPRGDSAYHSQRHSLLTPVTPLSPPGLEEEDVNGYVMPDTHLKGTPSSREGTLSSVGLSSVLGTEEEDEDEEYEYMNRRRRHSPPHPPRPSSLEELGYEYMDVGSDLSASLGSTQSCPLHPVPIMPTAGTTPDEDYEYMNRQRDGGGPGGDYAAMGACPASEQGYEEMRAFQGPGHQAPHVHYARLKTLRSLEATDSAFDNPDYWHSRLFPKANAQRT
Chain of BTK (Q06187 whole entry): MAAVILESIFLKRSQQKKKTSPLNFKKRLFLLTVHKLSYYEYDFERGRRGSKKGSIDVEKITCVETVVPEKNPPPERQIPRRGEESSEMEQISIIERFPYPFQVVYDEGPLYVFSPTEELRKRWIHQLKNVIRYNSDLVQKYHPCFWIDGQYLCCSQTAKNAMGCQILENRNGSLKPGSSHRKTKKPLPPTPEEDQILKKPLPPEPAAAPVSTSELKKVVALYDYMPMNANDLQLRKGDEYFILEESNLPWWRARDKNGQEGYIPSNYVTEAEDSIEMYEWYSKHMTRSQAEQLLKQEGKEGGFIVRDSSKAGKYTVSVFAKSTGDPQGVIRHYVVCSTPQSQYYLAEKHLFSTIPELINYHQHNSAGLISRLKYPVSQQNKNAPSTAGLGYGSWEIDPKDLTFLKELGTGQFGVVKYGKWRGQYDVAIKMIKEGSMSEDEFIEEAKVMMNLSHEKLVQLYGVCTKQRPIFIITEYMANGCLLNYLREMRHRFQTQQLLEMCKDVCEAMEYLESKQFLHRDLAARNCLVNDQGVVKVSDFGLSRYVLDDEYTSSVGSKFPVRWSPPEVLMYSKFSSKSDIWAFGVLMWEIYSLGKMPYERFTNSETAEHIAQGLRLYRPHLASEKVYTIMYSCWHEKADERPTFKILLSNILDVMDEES

As a reminder, the DC50 is the concentration at which degradation of the target reaches its halfway point. Regarding `Nc1ncnc2c1c(-c1ccc(Oc3ccccc3)cc1)nn2C1CCN(CCCCOCCCCOCC(=O)Nc2ccc3c(c2)C(=O)N(C2CCC(=O)NC2=O)C3=O)CC1` (centres unmarked) [Compound 105, 2-[4-[4-[4-[4-amino-3-(4-phenoxyphenyl)pyrazolo[3,4-d]pyrimidin-1-yl]-1-piperidyl]butoxy]butoxy]-N-[2-(2,6-dioxo-3-piperidyl)-1,3-dioxo-isoindolin-5-yl]acetamide], the “HER3 Degradation” value at HER3 is on record as “No”. In addition, at BTK (read-out: DC50), the DC50 turned out to be 11.6 nM. On BTK (at 250 nM), this compound yielded a Max greater than 99%. The “hook-effect (increase in BTK levels at high PROTAC concentration)” value at BTK (up to 2.5 μM, 24 h) is given as “(No”.

In the case of `Nc1ncnc2c1c(-c1ccc(Oc3ccccc3)cc1)nn2C1CCN(CCCCOCCCCOCC(=O)Nc2cccc3c2C(=O)N(C2CCC(=O)NC2=O)C3=O)CC1` (centres unmarked) [Compound 106, 2-[4-[4-[4-[4-amino-3-(4-phenoxyphenyl)pyrazolo[3,4-d]pyrimidin-1-yl]-1-piperidyl]butoxy]butoxy]-N-[2-(2,6-dioxo-3-piperidyl)-1,3-dioxo-isoindolin-4-yl]acetamide], at HER3, the “HER3 Degradation” value is reported as “No”. Further, the “degradation of BTK at 1.0 μM” value at BTK (1.0 μM) was “nearly complete degradation”. For the same compound, the 50% degradation concentration (DC50) on BTK (read-out: DC50) worked out at 90.1 nM. This compound yielded a Max on BTK (at 1.0 μM) of 93%.

As to `Nc1ncnc2c1c(-c1ccc(Oc3ccccc3)cc1)nn2C1CCN(CCCCCCOCCCCCCOCC(=O)Nc2cccc3c2C(=O)N(C2CCC(=O)NC2=O)C3=O)CC1` (centres unmarked) [Compound 107, 2-(6-(6-(4-(4-amino-3-(4-phenoxyphenyl)-1H-pyrazolo[3,4-d]pyrimidin-1-yl)piperidin-1-yl)hexyloxy)hexyloxy)-N-(2-(2,6-dioxopiperidin-3-yl)-1,3-dioxoisoindolin-4-yl)acetamide], the “HER3 Degradation” value at HER3 is “No”. The DC50 on BTK (read-out: DC50) is 98.5 nM. The compound further came in with a Max on BTK (at 1.0 μM) of 98%.

On to `Cc1ncsc1-c1ccc(CNC(=O)[C@@H]2C[C@@H](O)CN2C(=O)[C@@H](NC(=O)COCCOCCOCCOCCN2CCC(n3nc(-c4ccc(Oc5ccccc5)cc4)c4c(N)ncnc43)CC2)C(C)(C)C)cc1` [Compound 109, (2S,4R)-1-((S)-17-(4-(4-amino-3-(4-phenoxyphenyl)-1H-pyrazolo[3,4-d]pyrimidin-1-yl)piperidin-1-yl)-2-tert-butyl-4-oxo-6,9,12,15-tetraoxa-3-azaheptadecane)-4-hydroxy-N-(4-(4-methylthiazol-5-yl)benzyl)pyrrolidine-2-carboxamide], for which the “HER3 Degradation” value at HER3 is listed as “No”. Also, the DC50 at BTK (read-out: DC50) was 278 nM. The Max on BTK (at 2.5 μM) is given as 73%.

For the compound `Cc1ncsc1-c1ccc(CNC(=O)[C@@H]2C[C@@H](O)CN2C(=O)[C@@H](NC(=O)COCCOCCOCCCCCCN2CCC(n3nc(-c4ccc(Oc5ccccc5)cc4)c4c(N)ncnc43)CC2)C(C)(C)C)cc1` [Compound 110, (2S,4R)-1-((S)-19-(4-(4-amino-3-(4-phenoxyphenyl)-1H-pyrazolo[3,4-d]pyrimidin-1-yl)piperidin-1-yl)-2,2-dimethyl-5-oxo-7,10,13-trioxa-4-azanonadecanecarbonyl)-4-hydroxy-N-(4-(4-methylthiazol-5-yl)benzyl)pyrrolidine-2-carboxamide], the “HER3 Degradation” value at HER3 is on record as “No”. At BTK, the half-maximal degradation concentration (DC50) entry was “No Degradation”.

On to `Cc1ncsc1-c1ccc(CNC(=O)[C@@H]2C[C@@H](O)CN2C(=O)[C@@H](NC(=O)COCCCCCOCCCCCCN2CCC(n3nc(-c4ccc(Oc5ccccc5)cc4)c4c(N)ncnc43)CC2)C(C)(C)C)cc1` [Compound 111, (2S,4R)-1-((S)-2-(2-(5-(6-(4-(4-amino-3-(4-phenoxyphenyl)-1H-pyrazolo[3,4-d]pyrimidin-1-yl)piperidin-1-yl)hexyloxy)pentyloxy)acetamido)-3,3-dimethylbutanoyl)-4-hydroxy-N-(4-(4-methylthiazol-5-yl)benzyl)pyrrolidine-2-carboxamide], for which the “HER3 Degradation” value on HER3 is “No”. The 50% degradation concentration (DC50) on BTK (read-out: DC50) turned out to be 144 nM. At BTK (at 1.0 μM), this compound yielded a Max of 45%.

Turning to `Cc1ncsc1-c1ccc(CNC(=O)[C@@H]2C[C@@H](O)CN2C(=O)[C@@H](NC(=O)CCCCCOCCOCCCCCCN2CCC(n3nc(-c4ccc(Oc5ccccc5)cc4)c4c(N)ncnc43)CC2)C(C)(C)C)cc1` [Compound 112, (2S,4R)-1-((S)-2-(6-(2-(6-(4-(4-amino-3-(4-phenoxyphenyl)-1H-pyrazolo[3,4-d]pyrimidin-1-yl)piperidin-1-yl)hexyloxy)ethoxy)hexanamido)-3,3-dimethylbutanoyl)-4-hydroxy-N-(4-(4-methylthiazol-5-yl)benzyl)pyrrolidine-2-carboxamide], at HER3, the “HER3 Degradation” value was “No”. The 50% degradation concentration (DC50) entry on BTK was “No Degradation”.

For the compound `Cc1ncsc1-c1ccc(CNC(=O)[C@@H]2C[C@@H](O)CN2C(=O)[C@@H](NC(=O)COCCOCCOCCOCCCCN2CCC(n3nc(-c4ccc(Oc5ccccc5)cc4)c4c(N)ncnc43)CC2)C(C)(C)C)cc1` [Compound 113, (2S,4R)-1-((S)-19-(4-(4-amino-3-(4-phenoxyphenyl)-1H-pyrazolo[3,4-d]pyrimidin-1-yl)piperidin-1-yl)-2-tert-butyl-4-oxo-6,9,12,15-tetraoxa-3-azanonadecane)-4-hydroxy-N-(4-(4-methylthiazol-5-yl)benzyl)pyrrolidine-2-carboxamide], at HER3, the “HER3 Degradation” value is given as “No”. In addition, the DC50 on BTK (read-out: DC50) is 124 nM. Besides, the Max at BTK (at 1.0 μM) is 60%.

Take `Cc1ncsc1-c1ccc(CNC(=O)[C@@H]2C[C@@H](O)CN2C(=O)[C@@H](NC(=O)COCCOCCOCCOCCN2CCN(C3CCC(n4nc(-c5ccc(Oc6ccccc6)cc5)c5c(N)ncnc54)CC3)CC2)C(C)(C)C)cc1` (stereo partly drawn) [Compound 114, (2S,4R)-1-((S)-17-(4-(4-(4-amino-3-(4-phenoxyphenyl)-1H-pyrazolo[3,4-d]pyrimidin-1-yl)cyclohexyl)piperazin-1-yl)-2-tert-butyl-4-oxo-6,9,12,15-tetraoxa-3-azaheptadecane)-4-hydroxy-N-(4-(4-methylthiazol-5-yl)benzyl)pyrrolidine-2-carboxamide]: the “HER3 Degradation” value on HER3 is on record as “No”. The 50% degradation concentration (DC50) on BTK (read-out: DC50) is 248 nM. On BTK (at 1.0 μM), this compound had a Max of 30%.

Turning to `Cc1ncsc1-c1ccc(CNC(=O)[C@@H]2C[C@@H](O)CN2C(=O)[C@@H](NC(=O)COCCOCCOCCOCCCCCCN2CCC(n3nc(-c4ccc(Oc5ccccc5)cc4)c4c(N)ncnc43)CC2)C(C)(C)C)cc1` [Compound 115, (2S,4R)-1-((S)-22-(4-(4-amino-3-(4-phenoxyphenyl)-1H-pyrazolo[3,4-d]pyrimidin-1-yl)piperidin-1-yl)-2,2-dimethyl-5-oxo-7,10,13,16-tetraoxa-4-azadocosanecarbonyl)-4-hydroxy-N-(4-(4-methylthiazol-5-yl)benzyl)pyrrolidine-2-carboxamide], the “HER3 Degradation” value on HER3 is given as “No”. Moreover, the half-maximal degradation concentration (DC50) on BTK (read-out: DC50) worked out at 231 nM. On BTK (at 1.0 μM), this compound returned a Max of 32%.

Turning to `Cc1ncsc1-c1ccc(CNC(=O)[C@@H]2C[C@@H](O)CN2C(=O)[C@@H](NC(=O)CCCCCOCCOCCOCCCCCCN2CCC(n3nc(-c4ccc(Oc5ccccc5)cc4)c4c(N)ncnc43)CC2)C(C)(C)C)cc1` [Compound 116, (2S,4R)-1-((S)-23-(4-(4-amino-3-(4-phenoxyphenyl)-1H-pyrazolo[3,4-d]pyrimidin-1-yl)piperidin-1-yl)-2,2-dimethyl-5-oxo-11,14,17-trioxa-4-azatricosanecarbonyl)-4-hydroxy-N-(4-(4-methylthiazol-5-yl)benzyl)pyrrolidine-2-carboxamide], the “HER3 Degradation” value on HER3 was “No”. Further, the DC50 result at BTK is “No Degradation”.
